Assay [1] has as its system pERK in H358 xenograft tumors. Put plainly: In vivo target inhibition/PD, H358 xenograft, pERK. Further details: species or system mouse. The settings on record: for inhibition at 10 mg/kg: 10 mg/kg single dose; for inhibition at 30 mg/kg: 30 mg/kg single dose. How it is done: To evaluate in vivo target inhibition and anti-tumor efficacy of a compound, Human lung cancer cells, H358 or H2122 are implanted into nude mice xenograft tumor models. Either H358 or H2122 cells (10×10^6 in a 1:1 Matrigel® mix, 0.2 mL total volume) are implanted by subcutaneous injection in hind leg of nude female mice (Harlan Laboratories). A total of 5 mice each group are used for efficacy study, and a total of 3-4 mice each group are used for target engagement and PD study. Treatment is initiated with oral administration (gavage) of a test compound or vehicle (20% Captisol®, 25 mM phosphate, pH 2.0 in 0.2 mL volume when the tumor size reaches approximately […]. Tumor growth and body weight are monitored over time to evaluate efficacy and signs of toxicity. Bidimensional measurements of tumors are performed twice a week and tumor volumes are calculated based on mid-axis length and mid-axis width. Tumor volume data are transformed to a log scale to equalize variance across time and treatment groups. The log volume data are analyzed with a two-way repeated measures analysis of variance by time and treatment using the mixed procedures in SAS software (version 8.2). The correlation model for the repeated measures is spatial power. Treated groups are compared to the control group at each time point. The mixed procedure is also used separately for each treatment group to calculate adjusted means and standard errors at each time point. Both analyses account for the autocorrelation within each animal. The adjusted means and standard errors are plotted for each treatment group versus time.
For in vivo target inhibition and PD analysis, tumors are ground by mortar and pestle on dry ice and tumor fragments are added to 800 μL of lysis buffer containing 1% Triton X100, 25 mM Tris pH 7.5, 150 mM NaCl, 1 mM EDTA, and 1 mM EGTA with Halt protease and phosphatase inhibitor cocktail (Thermo Scientific, cat. no. 1861281) in lysing matrix D tubes (MP Biomedical®, cat. no. 6913-500) with one additional large bead (MP Biomedical® ¼″ ceramic sphere bead cat. no. 6540-412) per tube. Tumor fragments are homogenized in a Thermo Bio101® fast prep (FP120) at setting 4 for […] while cold for a total of 2 times. Lysates are spun at 14,000 rpm for 10 min at 4° C. to clarify. Protein estimation is done on the lysate supernatant using a BioRad Dc® protein assay and lysates are diluted in complete lysis/binding buffer from the Ras GTPase Chemi ELISA Kit® (Active Motif, cat. no. 52097). The active KRas ELISA was performed as follows: Glutathione-coated ELISA wells were incubated with diluted RAF1-GST in complete lysis/binding buffer for 1 hr at 4° C. with gentle agitation. Wells are washed 3 times with wash buffer and 100 μg of lysates are added to each well and incubated at RT for 1 hr with mild agitation. The wells are washed an additional 3 times, then primary antibody, diluted in antibody binding buffer, is added to each well. The plates are incubated for 1 hr. The wells are washed 3 more times before adding HRP-conjugated secondary antibody, diluted in antibody binding buffer, to each well. The plates are incubated at RT for 1 hr. ELISA wells are washed 4 times, chemiluminescent reagents is added and then luminescence is read. For pERK Meso Scale Discovery ELISA, 25 μg of protein containing 0.1% SDS is used; for pMEK Meso Scale Discovery ELISA, 50 μg of protein without SDS is used. Meso Scale Discovery Whole Cell Lysate Kits for pERK and pMEK are provided by Meso Scale Discovery.
The tumor samples are collected 4 hr post a single dose. The tumor lysates are prepared and the inhibition of pERK, pMEK, and active KRas is measured as described above.
After a single dose, the tumor samples are harvested at 2, 4, 8, 12 and 24 hr post doing. The tumor lysates are prepared and the inhibition of pERK, pMEK, and active KRas is measured as described above.

In a further assay the test system is H23. Put plainly: Combination 4 day growth assay (Cell TiterGlo), H23. The assay is classed as cell-based. The settings on record: Homo sapiens, NCI-H23, 96 h, single treatment, read-out: Absolute IC50. As to the method: Cell lines for this study are obtained from ATCC and grown under ATCC recommended conditions, except for LXFA-983L, which is obtained from Oncotest/Charles Rivers Laboratories, Wilmington, Mass. and D122-96, which is obtained from L. Eisenbach (Weizman Institute of Science, Rehovot, Israel)—both grown under recommended conditions. […] The proliferation assay is performed as a 4 day growth assay using Cell TiterGlo® as the readout. Briefly, cells are plated in 96-well cell culture plates and allowed to adhere overnight at 37° C. The following day, cells are treated with compounds, either single treatments or combination treatments. First, the testing compounds are serially diluted in DMSO, followed by dilution into media as a 5× concentration with 1% DMSO, and finally added to cells in media to dilute to 1×. The cells are incubated at 37° C. for 4 more days. At the end of the incubation period, Cell TiterGlo® reagent is mixed and added to the wells. After 10 minutes, the luminescence is read by a Perkin Elmer Envision instrument. Absolute IC50 values generated by a 4-parameter logistics model for the single and combination treatments are generated, followed by combination indexes for each combination treatment and cell line. The combination IC50 values are adjusted based on the total concentration of each compound when added together. […] The combination index (CI) measures the degree to which the potency of a combination therapy differs from the expected-if-additive potency and is based on the Loewe definition of additivity.
[formula] Where • CAy and CBy are the concentrations of therapies A and B that produce an effect, y, when given in combination • ICAy and ICBy are the concentrations of A and B that produce an effect, y, when given individually The biological interpretation of the combination index is as follows: synergistic if the combination index <0.5, additive if the combination index is between 0.5 and 2, and antagonistic if the combination index is >2.

[2] abbreviates: Mus musculus, NCI-H358, 2 h, H358 xenograft, time course, 2 hr, read-out: % Inhibition pERK.
Setting [3] is: Mus musculus, NCI-H358, 4 h, H358 xenograft, time course, 4 hr, read-out: % Inhibition pERK.
Setting [4] is: Mus musculus, NCI-H358, 4 h, H358 xenograft, 4 hr post dose, read-out: % Inhibition pERK.
The mark [5] stands for this setting: Mus musculus, NCI-H358, 8 h, H358 xenograft, time course, 8 hr, read-out: % Inhibition pERK.
Setting [6] is: Mus musculus, NCI-H358, 12 h, H358 xenograft, time course, 12 hr, read-out: % Inhibition pERK.
Setting [7] is: Mus musculus, NCI-H358, 24 h, H358 xenograft, time course, 24 hr, read-out: % Inhibition pERK.

pEC50, pIC50: −log10 of the molar value. Where two headings read alike, the source gives them in different places.

A word on the inhibition: it is the percentage by which the read-out fell short of the control. The pIC50 is the IC50 on a negative log10 scale, so that one unit is a factor of ten. In the case of `C=CC(=O)N1CCN(c2ncnc3c(F)c(-c4ccc(F)c5sc(N)nc45)c(Cl)cc23)CC1` [Example 1, 1-{4-[7-(2-Amino-7-fluoro-1,3-benzothiazol-4-yl)-6-chloro-8-fluoroquinazolin-4-yl]piperazin-1-yl}prop-2-en-1-one], the “dose to achieve 50% target inhibition (TED50), pERK” value in assay [1] (H358 xenograft, single dose, 4 hr) was 9.78 mg/kg. Further, the inhibition at 10 mg/kg is 61.7% in assay [1] (setting [2]); 73.5% in assay [1] (setting [3]); 47.8% in assay [1] (setting [4]); 69.2% in assay [1] (setting [5]); 83% in assay [1] (setting [6]); 45% in assay [1] (setting [7]). The inhibition at 10 mg/kg in assay [1] (Mus musculus, NCI-H358, H358 xenograft, from 2-12 hr, read-out: pERK inhibition) lay within 61 to 83%. The inhibition at 30 mg/kg stood at 83.1% in assay [1] (setting [2]); 87.3% in assay [1] (setting [3]); 84.2% in assay [1] (setting [4]); 86.5% in assay [1] (setting [5]); 77.4% in assay [1] (setting [6]); 63.4% in assay [1] (setting [7]). The inhibition at 30 mg/kg in assay [1] (Mus musculus, NCI-H358, H358 xenograft, from 2-24 hr, read-out: pERK inhibition) lay within 63 to 87%. This compound gave an inhibition at 1 mg/kg in assay [1] (Mus musculus, NCI-H358, 4 h, H358 xenograft, 1 mg/kg single dose, 4 hr post dose) of 5.5%. Also, testing at 3 mg/kg in assay [1] (Mus musculus, NCI-H358, 4 h, H358 xenograft, 3 mg/kg single dose, 4 hr post dose) gave an inhibition of 16.4%. In assay [1] (Mus musculus, NCI-H358, 4 h, H358 xenograft, 100 mg/kg single dose, 4 hr post dose), this compound showed an inhibition at 100 mg/kg of 83.5%. Besides, the pEC50 in assay [1] (Mus musculus, NCI-H358, H358 xenograft, plasma exposure by mass spectrum, read-out: plasma concentration to achieve 50% target inhibition (TEC50), pERK) is 6.32. In addition, the negative-log IC50 (pIC50) in the assay with H23 was 6.63.

Source of the values: patent US10968214B2, “KRas G12C inhibitors” (Eli Lilly and Company, priority 2018, dated 2021).
